{
  "source": "patent US5358947A",
  "about": "“Angiotensin II receptor blocking 2,3-substituted pyrazolo[1,5-a]-1,3,5-triazin-4(3H)-ones” (American Cyanamid Company, priority 1993, dated 1994)",
  "test_system": "ANGIOTENSIN II (AII) VASOPRESSOR RESPONSE",
  "assay": "AII Challenge: angiotensin II (AII) vasopressor response in conscious rats",
  "format": "in vivo",
  "set-up": "Response After AII / Change / Average Change: unit not given here",
  "settings": "for Response After AII / Change / Control Before AII: individual rat; for Control Before AII: in mmHg (unit assumed); for % Inhibition / Average Change: n = 2",
  "how_it_was_run": "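Conscious male Okamoto-Aoki SHR (16-20 weeks, ~330 g), aorta/vena cava cannulated, challenged with AII 0.05 and 0.1 ug/kg i.v. before and at 30-300 min after compound dosed i.v., i.p. or orally. Systolic pressure rise expressed relative to each rat's predose response (100%).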",
  "key": {"[1]": {"settings": "10 mg/kg i.v., AII 0.05 mcg/kg, 30 min post dose"}, "[2]": {"settings": "10 mg/kg i.v., AII 0.05 mcg/kg, 30 min post dose, listed as Ex. 10"}, "[3]": {"settings": "10 mg/kg i.v., AII 0.05 mcg/kg, 60 min post dose"}, "[4]": {"settings": "10 mg/kg i.v., AII 0.05 mcg/kg, 60 min post dose, listed as Ex. 10"}, "[5]": {"settings": "10 mg/kg i.v., AII 0.1 mcg/kg, 30 min post dose"}, "[6]": {"settings": "10 mg/kg i.v., AII 0.1 mcg/kg, 30 min post dose, listed as Ex. 10"}, "[7]": {"settings": "10 mg/kg i.v., AII 0.1 mcg/kg, 60 min post dose"}, "[8]": {"settings": "10 mg/kg i.v., AII 0.1 mcg/kg, 60 min post dose, listed as Ex. 10"}, "[9]": {"settings": "20 mg/kg i.v., AII 0.05 mcg/kg, 90 min post dose"}, "[10]": {"settings": "20 mg/kg i.v., AII 0.05 mcg/kg, 90 min post dose, listed as Ex. 10"}, "[11]": {"settings": "20 mg/kg i.v., AII 0.05 mcg/kg, 120 min post dose"}, "[12]": {"settings": "20 mg/kg i.v., AII 0.05 mcg/kg, 120 min post dose, listed as Ex. 10"}, "[13]": {"settings": "20 mg/kg i.v., AII 0.05 mcg/kg, 180 min post dose"}, "[14]": {"settings": "20 mg/kg i.v., AII 0.05 mcg/kg, 180 min post dose, listed as Ex. 10"}, "[15]": {"settings": "20 mg/kg i.v., AII 0.05 mcg/kg, 240 min post dose"}, "[16]": {"settings": "20 mg/kg i.v., AII 0.05 mcg/kg, 240 min post dose, listed as Ex. 10"}, "[17]": {"settings": "20 mg/kg i.v., AII 0.05 mcg/kg, 300 min post dose, listed as Ex. 10"}, "[18]": {"settings": "20 mg/kg i.v., AII 0.05 mcg/kg, 300 min post dose"}, "[19]": {"settings": "20 mg/kg i.v., AII 0.1 mcg/kg, 90 min post dose"}, "[20]": {"settings": "20 mg/kg i.v., AII 0.1 mcg/kg, 90 min post dose, listed as Ex. 10"}, "[21]": {"settings": "20 mg/kg i.v., AII 0.1 mcg/kg, 120 min post dose"}, "[22]": {"settings": "20 mg/kg i.v., AII 0.1 mcg/kg, 120 min post dose, listed as Ex. 10"}, "[23]": {"settings": "20 mg/kg i.v., AII 0.1 mcg/kg, 180 min post dose, listed as Ex. 10"}, "[24]": {"settings": "20 mg/kg i.v., AII 0.1 mcg/kg, 180 min post dose"}, "[25]": {"settings": "20 mg/kg i.v., AII 0.1 mcg/kg, 240 min post dose, listed as Ex. 10"}, "[26]": {"settings": "20 mg/kg i.v., AII 0.1 mcg/kg, 240 min post dose"}, "[27]": {"settings": "20 mg/kg i.v., AII 0.1 mcg/kg, 300 min post dose"}, "[28]": {"settings": "20 mg/kg i.v., AII 0.1 mcg/kg, 300 min post dose, listed as Ex. 10"}},
  "note": "Where “and” joins values, the source holds several entries; their conditions need not be identical. Equal entries are not always repeated.",
  "data": [
    {"compound": "CCCCc1nc2cc(-c3ccccc3)nn2c(=O)n1Cc1ccc(-c2ccccc2-c2nnn[nH]2)cc1", "note": "[Example 10, 2-Butyl-7-phenyl-3-[[2'-(1H-tetrazol-5-yl)[1,1'-biphenyl]-4-yl]methyl]pyrazolo[1,5-a]-1,3,5-triazin-4(3H)-one]", "values": [
      {"measurement": "Response After AII", "setting": "[1]", "result": 235},
      {"measurement": "Change", "setting": "[2]", "result": "15 and 5"},
      {"measurement": "Response After AII", "setting": "[2]", "result": 215},
      {"measurement": "Control Before AII", "setting": "[2]", "result": "220 and 210"},
      {"measurement": "% Inhibition", "setting": "[1]", "result": 80, "unit": "%"},
      {"measurement": "Average Change", "setting": "[1]", "result": 10},
      {"measurement": "Control Before AII", "setting": "[3]", "result": 210},
      {"measurement": "Change", "setting": "[4]", "result": "45 and 15"},
      {"measurement": "Response After AII", "setting": "[4]", "result": "255 and 230"},
      {"measurement": "Control Before AII", "setting": "[4]", "result": 215},
      {"measurement": "% Inhibition", "setting": "[3]", "result": 40, "unit": "%"},
      {"measurement": "Average Change", "setting": "[3]", "result": 30},
      {"measurement": "Response After AII", "setting": "[5]", "result": 245},
      {"measurement": "Control Before AII", "setting": "[5]", "result": 210},
      {"measurement": "Change", "setting": "[6]", "result": "35 and 5"},
      {"measurement": "Response After AII", "setting": "[6]", "result": 215},
      {"measurement": "% Inhibition", "setting": "[5]", "result": 60, "unit": "%"},
      {"measurement": "Average Change", "setting": "[5]", "result": 20},
      {"measurement": "Response After AII", "setting": "[7]", "result": 250},
      {"measurement": "Change", "setting": "[8]", "result": "40 and 10"},
      {"measurement": "Response After AII", "setting": "[8]", "result": 215},
      {"measurement": "Control Before AII", "setting": "[8]", "result": "210 and 205"},
      {"measurement": "% Inhibition", "setting": "[7]", "result": 50, "unit": "%"},
      {"measurement": "Average Change", "setting": "[7]", "result": 25},
      {"measurement": "Change", "setting": "[9]", "result": 10},
      {"measurement": "Response After AII", "setting": "[10]", "result": "205 and 215"},
      {"measurement": "Control Before AII", "setting": "[10]", "result": "195 and 205"},
      {"measurement": "% Inhibition", "setting": "[9]", "result": 80, "unit": "%"},
      {"measurement": "Average Change", "setting": "[9]", "result": 10},
      {"measurement": "Response After AII", "setting": "[11]", "result": 210},
      {"measurement": "Change", "setting": "[12]", "result": "10 and 20"},
      {"measurement": "Response After AII", "setting": "[12]", "result": 185},
      {"measurement": "Control Before AII", "setting": "[12]", "result": "175 and 190"},
      {"measurement": "% Inhibition", "setting": "[11]", "result": 70, "unit": "%"},
      {"measurement": "Average Change", "setting": "[11]", "result": 15},
      {"measurement": "Control Before AII", "setting": "[13]", "result": 185},
      {"measurement": "Change", "setting": "[14]", "result": "10 and 25"},
      {"measurement": "Response After AII", "setting": "[14]", "result": "195 and 210"},
      {"measurement": "% Inhibition", "setting": "[13]", "result": 65, "unit": "%"},
      {"measurement": "Average Change", "setting": "[13]", "result": 17.5},
      {"measurement": "Response After AII", "setting": "[15]", "result": 190},
      {"measurement": "Change", "setting": "[16]", "result": "10 and 5"},
      {"measurement": "Response After AII", "setting": "[16]", "result": 205},
      {"measurement": "Control Before AII", "setting": "[16]", "result": "195 and 185"},
      {"measurement": "% Inhibition", "setting": "[15]", "result": 85, "unit": "%"},
      {"measurement": "Average Change", "setting": "[15]", "result": 7.5},
      {"measurement": "Change", "setting": "[17]", "result": "30 and 15"},
      {"measurement": "Response After AII", "setting": "[17]", "result": "220 and 195"},
      {"measurement": "Control Before AII", "setting": "[17]", "result": "190 and 180"},
      {"measurement": "% Inhibition", "setting": "[18]", "result": 55, "unit": "%"},
      {"measurement": "Average Change", "setting": "[18]", "result": 22.5},
      {"measurement": "Response After AII", "setting": "[19]", "result": 210},
      {"measurement": "Change", "setting": "[20]", "result": "10 and 0"},
      {"measurement": "Response After AII", "setting": "[20]", "result": 215},
      {"measurement": "Control Before AII", "setting": "[20]", "result": "205 and 210"},
      {"measurement": "% Inhibition", "setting": "[19]", "result": 90, "unit": "%"},
      {"measurement": "Average Change", "setting": "[19]", "result": 5},
      {"measurement": "Response After AII", "setting": "[21]", "result": 200},
      {"measurement": "Change", "setting": "[22]", "result": "5 and 10"},
      {"measurement": "Response After AII", "setting": "[22]", "result": 205},
      {"measurement": "Control Before AII", "setting": "[22]", "result": "200 and 190"},
      {"measurement": "% Inhibition", "setting": "[21]", "result": 85, "unit": "%"},
      {"measurement": "Average Change", "setting": "[21]", "result": 7.5},
      {"measurement": "Change", "setting": "[23]", "result": "20 and 15"},
      {"measurement": "Response After AII", "setting": "[23]", "result": "210 and 200"},
      {"measurement": "Control Before AII", "setting": "[23]", "result": "190 and 185"},
      {"measurement": "% Inhibition", "setting": "[24]", "result": 65, "unit": "%"},
      {"measurement": "Average Change", "setting": "[24]", "result": 17.5},
      {"measurement": "Change", "setting": "[25]", "result": "17 and 10"},
      {"measurement": "Response After AII", "setting": "[25]", "result": "217 and 195"},
      {"measurement": "Control Before AII", "setting": "[25]", "result": "200 and 185"},
      {"measurement": "% Inhibition", "setting": "[26]", "result": 73, "unit": "%"},
      {"measurement": "Average Change", "setting": "[26]", "result": 13.5},
      {"measurement": "Change", "setting": "[27]", "result": 30},
      {"measurement": "Response After AII", "setting": "[27]", "result": 235},
      {"measurement": "Response After AII", "setting": "[28]", "result": 205},
      {"measurement": "Control Before AII", "setting": "[28]", "result": "205 and 175"},
      {"measurement": "% Inhibition", "setting": "[27]", "result": 40, "unit": "%"},
      {"measurement": "Average Change", "setting": "[27]", "result": 30}
    ]}
  ]
}
